From patent US7553667B2, “Regulation of gene expression using chromatin remodelling factors” (Her Majesty the Queen in right of Canada as represented by …, priority 2002, dated 2009)

Key:
[1] = test system: auxin-inducible GUS expression; settings: seedlings, up to 1 mM for 24 h; cited from earlier work
[2] = test system: BnSCL1 gene expression; experiment: Quantitative one-step RT-PCR of BnSCL1 expression in treated seedlings; format: in vivo, Brassica napus; settings: 10 mM for 24 h, then 2,4-D 10^-6 to 10^3 μM
Protocol: In exogenous applied auxin treatments, four-leaf stage seedlings grown at 20° C. were treated with a foliar spray containing 1 mM 2,4-D and 50 mM sodium phosphate, pH 7.5. The four leaves were collected at 30 min, 60 min and 180 min after the first foliar application of 2,4-D. For the measurement of response of shoots and roots to auxin, sterilized seeds were germinated on plates in a growth chamber with continuous light at 20° C., and 10 dpg seedlings were supplied with varied concentration of 2,4-D. In the auxin transport inhibition experiments, 9 dpg seedlings were incubated in the medium supplemented with 50 μM NPA dissolved in 0.1% DMSO for 24 h before the 2,4-D treatment. For the HDAC inhibitor treatments, 10 mM sodium butyrate was added onto the growth medium and incubated for 24 h followed by exogenous 2,4-D application at varied concentrations.
Total RNA extracted as described above was treated with Amplification Grade Deoxyribonuclease I (GibcoL BRL) following the manufacture's instructions. The RNA samples were then directly used for reverse transcription prior to amplification without purification. The RT-PCR was quantitatively performed and completed in a one-step reaction using […] One-Step RT-PCR System (GibcoL BRL) as described by Gao et al. (2002). Gene-specific sense and anti-sense primers used to generate a 960 bp fragment of Brassica napus Actin, as an internal standard, were as described in Gao et al., (2002). Gene-specific primers for the generation of BnSCL1, BnIAA1 and BnIAA12 fragments were as follows: […]

CCCC(=O)[O-].[Na+] [sodium butyrate]
effect on auxin-inducible GUS expression [1]: no effect
BnSCL1 expression profile in shoots and roots in response to auxin after HDAC inhibition [2]: upregulated by auxin at concentration of 1 pM and downregulated by auxin at higher concentrations
